Source: PubChem BioAssay (NCI)
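Five concentrations, 48 hours, 96-well plates. GI50 marks 50% less growth. TGI: concentration producing complete growth inhibition.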

Columns and labels:
Assay in all cases: NCI anticancer screen, dose series, 48 h
ACHN renal = tested on: ACHN renal
RXF 393 renal = tested on: RXF 393 renal
HCT-116 colon = tested on: HCT-116 colon
UO-31 renal = tested on: UO-31 renal
BT-549 breast = tested on: BT-549 breast
NCI-H522 lung = tested on: NCI-H522 lung
SN12C renal = tested on: SN12C renal
SW-620 colon = tested on: SW-620 colon
OVCAR-5 ovarian = tested on: OVCAR-5 ovarian
NCI/ADR-RES ovarian = tested on: NCI/ADR-RES ovarian
UACC-257 melanoma = tested on: UACC-257 melanoma
SK-MEL-28 melanoma = tested on: SK-MEL-28 melanoma
SNB-19 CNS = tested on: SNB-19 CNS
HOP-92 NSCLC = tested on: HOP-92 NSCLC
SR leukemia = tested on: SR leukemia
T-47D breast = tested on: T-47D breast
KM12 colon = tested on: KM12 colon
U251 CNS = tested on: U251 CNS
NCI-H226 lung = tested on: NCI-H226 lung
A549 NSCLC = tested on: A549 NSCLC
UACC-62 melanoma = tested on: UACC-62 melanoma
SNB-75 CNS = tested on: SNB-75 CNS
COLO 205 colon = tested on: COLO 205 colon
MOLT-4 leukemia = tested on: MOLT-4 leukemia
MCF7 breast = tested on: MCF7 breast
SK-OV-3 ovarian = tested on: SK-OV-3 ovarian
K-562 leukemia = tested on: K-562 leukemia
OVCAR-3 ovarian = tested on: OVCAR-3 ovarian
HT29 colon = tested on: HT29 colon
RPMI-8226 leukemia = tested on: RPMI-8226 leukemia
HCC-2998 colon = tested on: HCC-2998 colon
786-0 renal = tested on: 786-0 renal
SK-MEL-2 melanoma = tested on: SK-MEL-2 melanoma
MDA-MB-231 breast = tested on: MDA-MB-231 breast
SF-295 CNS = tested on: SF-295 CNS
DU-145 prostate = tested on: DU-145 prostate
OVCAR-8 ovarian = tested on: OVCAR-8 ovarian
HL-60(TB) leukemia = tested on: HL-60(TB) leukemia
SF-539 CNS = tested on: SF-539 CNS
MALME-3M melanoma = tested on: MALME-3M melanoma
SF-268 CNS = tested on: SF-268 CNS
OVCAR-4 ovarian = tested on: OVCAR-4 ovarian
HS 578T breast = tested on: HS 578T breast
SK-MEL-5 melanoma = tested on: SK-MEL-5 melanoma
EKVX NSCLC = tested on: EKVX NSCLC
NCI-H460 lung = tested on: NCI-H460 lung
IGROV1 ovarian = tested on: IGROV1 ovarian
NCI-H23 lung = tested on: NCI-H23 lung
CAKI-1 renal = tested on: CAKI-1 renal
HCT-15 colon = tested on: HCT-15 colon
M14 melanoma = tested on: M14 melanoma
PC-3 prostate = tested on: PC-3 prostate
CCRF-CEM leukemia = tested on: CCRF-CEM leukemia
A498 renal = tested on: A498 renal
HOP-62 NSCLC = tested on: HOP-62 NSCLC
TK-10 renal = tested on: TK-10 renal
MDA-MB-435 = tested on: MDA-MB-435

COc1cc(/C=C2\CN(S(=O)(=O)c3ccc(C)cc3)C/C(=C\c3cc(CN4CCOCC4)c(O)c(OC)c3)C2=O)cc(CN2CCOCC2)c1O
GI50 (ACHN renal): 1.47 µM | TGI (ACHN renal): 22.5 µM | GI50 (RXF 393 renal): 2.81 µM | TGI (RXF 393 renal): 29.5 µM | GI50 (HCT-116 colon): 3.25 µM | TGI (HCT-116 colon): > 100 µM | GI50 (UO-31 renal): 20.4 µM | TGI (UO-31 renal): > 100 µM | GI50 (BT-549 breast): 17.6 µM | TGI (BT-549 breast): 67.2 µM | GI50 (NCI-H522 lung): 2.34 µM | TGI (NCI-H522 lung): 32.6 µM | GI50 (SN12C renal): 0.524 µM | TGI (SN12C renal): 15.5 µM | GI50 (SW-620 colon): 1.35 µM | TGI (SW-620 colon): > 100 µM | GI50 (OVCAR-5 ovarian): > 100 µM | TGI (OVCAR-5 ovarian): > 100 µM | GI50 (NCI/ADR-RES ovarian): 55 µM | TGI (NCI/ADR-RES ovarian): > 100 µM | GI50 (UACC-257 melanoma): 2.06 µM | TGI (UACC-257 melanoma): > 100 µM | GI50 (SK-MEL-28 melanoma): 4.85 µM | TGI (SK-MEL-28 melanoma): > 100 µM | GI50 (SNB-19 CNS): 15.8 µM | TGI (SNB-19 CNS): > 100 µM | GI50 (HOP-92 NSCLC): 17.6 µM | TGI (HOP-92 NSCLC): 71.8 µM | GI50 (SR leukemia): 0.342 µM | TGI (SR leukemia): > 100 µM | GI50 (T-47D breast): 51.7 µM | TGI (T-47D breast): > 100 µM | GI50 (KM12 colon): 0.377 µM | TGI (KM12 colon): 25.5 µM | GI50 (U251 CNS): 0.782 µM | TGI (U251 CNS): > 100 µM | GI50 (NCI-H226 lung): 12.7 µM | TGI (NCI-H226 lung): 85.8 µM | GI50 (A549 NSCLC): 13 µM | TGI (A549 NSCLC): > 100 µM | GI50 (UACC-62 melanoma): 0.586 µM | TGI (UACC-62 melanoma): 16.4 µM | GI50 (SNB-75 CNS): 0.527 µM | TGI (SNB-75 CNS): 19.1 µM | GI50 (COLO 205 colon): 1.66 µM | TGI (COLO 205 colon): > 100 µM | GI50 (MOLT-4 leukemia): 0.321 µM | TGI (MOLT-4 leukemia): > 100 µM | GI50 (MCF7 breast): 0.394 µM | TGI (MCF7 breast): > 100 µM | GI50 (SK-OV-3 ovarian): 7.89 µM | TGI (SK-OV-3 ovarian): 56.5 µM | GI50 (K-562 leukemia): 0.561 µM | TGI (K-562 leukemia): > 100 µM | GI50 (OVCAR-3 ovarian): 0.611 µM | TGI (OVCAR-3 ovarian): > 100 µM | GI50 (HT29 colon): 0.346 µM | TGI (HT29 colon): > 100 µM | GI50 (RPMI-8226 leukemia): 2.34 µM | TGI (RPMI-8226 leukemia): > 100 µM | GI50 (HCC-2998 colon): 2.05 µM | TGI (HCC-2998 colon): 21.7 µM | GI50 (786-0 renal): 17.9 µM | TGI (786-0 renal): 59.4 µM | GI50 (SK-MEL-2 melanoma): 21.9 µM | TGI (SK-MEL-2 melanoma): 65.1 µM | GI50 (MDA-MB-231 breast): 2.27 µM | TGI (MDA-MB-231 breast): 92.5 µM | GI50 (SF-295 CNS): 12.5 µM | TGI (SF-295 CNS): 40.2 µM | GI50 (DU-145 prostate): 0.928 µM | TGI (DU-145 prostate): > 100 µM | GI50 (OVCAR-8 ovarian): 0.323 µM | TGI (OVCAR-8 ovarian): > 100 µM | GI50 (HL-60(TB) leukemia): 0.853 µM | TGI (HL-60(TB) leukemia): 27.4 µM | GI50 (SF-539 CNS): 7.21 µM | TGI (SF-539 CNS): 33 µM | GI50 (MALME-3M melanoma): 1.75 µM | TGI (MALME-3M melanoma): 65.8 µM | GI50 (SF-268 CNS): 0.935 µM | TGI (SF-268 CNS): 81.2 µM | GI50 (OVCAR-4 ovarian): 4.11 µM | TGI (OVCAR-4 ovarian): > 100 µM | GI50 (HS 578T breast): 0.721 µM | TGI (HS 578T breast): 19.8 µM | GI50 (SK-MEL-5 melanoma): 4.15 µM | TGI (SK-MEL-5 melanoma): > 100 µM | GI50 (EKVX NSCLC): 16.9 µM | TGI (EKVX NSCLC): 92.5 µM | GI50 (NCI-H460 lung): 0.337 µM | TGI (NCI-H460 lung): 2.52 µM | GI50 (IGROV1 ovarian): 1.09 µM | TGI (IGROV1 ovarian): 22.8 µM | GI50 (NCI-H23 lung): 3.31 µM | TGI (NCI-H23 lung): > 100 µM | GI50 (CAKI-1 renal): 1.53 µM | TGI (CAKI-1 renal): > 100 µM | GI50 (HCT-15 colon): 1.9 µM | TGI (HCT-15 colon): > 100 µM | GI50 (M14 melanoma): 0.689 µM | TGI (M14 melanoma): > 100 µM | GI50 (PC-3 prostate): 1.24 µM | TGI (PC-3 prostate): > 100 µM | GI50 (CCRF-CEM leukemia): 0.513 µM | TGI (CCRF-CEM leukemia): > 100 µM | GI50 (A498 renal): 12.4 µM | TGI (A498 renal): 54.4 µM | GI50 (HOP-62 NSCLC): 0.652 µM | TGI (HOP-62 NSCLC): 38 µM | GI50 (TK-10 renal): 15.4 µM | TGI (TK-10 renal): 59.8 µM

CCOC(=O)/C(=N/Nc1ccc(C)cc1)N1C(=S)C=C(C)NN(C)C1=S
TGI (ACHN renal): > 100 µM | TGI (RXF 393 renal): 83.7 µM | TGI (HCT-116 colon): > 100 µM | TGI (UO-31 renal): > 100 µM | TGI (BT-549 breast): > 100 µM | TGI (NCI-H522 lung): > 100 µM | TGI (SN12C renal): > 100 µM | TGI (SW-620 colon): > 100 µM | TGI (OVCAR-5 ovarian): > 100 µM | TGI (NCI/ADR-RES ovarian): > 100 µM | TGI (UACC-257 melanoma): > 100 µM | TGI (SK-MEL-28 melanoma): > 100 µM | TGI (SNB-19 CNS): > 100 µM | TGI (HOP-92 NSCLC): > 100 µM | TGI (SR leukemia): > 100 µM | TGI (T-47D breast): > 100 µM | TGI (KM12 colon): > 100 µM | TGI (MDA-MB-435): > 100 µM | TGI (U251 CNS): 55.5 µM | TGI (A549 NSCLC): > 100 µM | TGI (UACC-62 melanoma): > 100 µM | TGI (SNB-75 CNS): > 100 µM | TGI (COLO 205 colon): > 100 µM | TGI (MOLT-4 leukemia): > 100 µM | TGI (MCF7 breast): > 100 µM | TGI (SK-OV-3 ovarian): > 100 µM | TGI (K-562 leukemia): > 100 µM | TGI (OVCAR-3 ovarian): > 100 µM | TGI (HT29 colon): > 100 µM | TGI (RPMI-8226 leukemia): > 100 µM | TGI (HCC-2998 colon): > 100 µM | TGI (SK-MEL-2 melanoma): > 100 µM | TGI (MDA-MB-231 breast): > 100 µM | TGI (SF-295 CNS): 39.3 µM | TGI (DU-145 prostate): > 100 µM | TGI (OVCAR-8 ovarian): > 100 µM | TGI (HL-60(TB) leukemia): > 100 µM | TGI (SF-539 CNS): > 100 µM | TGI (SF-268 CNS): > 100 µM | TGI (OVCAR-4 ovarian): > 100 µM | TGI (HS 578T breast): > 100 µM | TGI (SK-MEL-5 melanoma): > 100 µM | TGI (EKVX NSCLC): > 100 µM | TGI (NCI-H460 lung): > 100 µM | TGI (IGROV1 ovarian): > 100 µM | TGI (NCI-H23 lung): > 100 µM | TGI (CAKI-1 renal): > 100 µM | TGI (HCT-15 colon): > 100 µM | TGI (M14 melanoma): > 100 µM | TGI (CCRF-CEM leukemia): > 100 µM | TGI (TK-10 renal): > 100 µM
